# Values quoted from earlier work as cited in US6717017B2, “Total synthesis of antitumor acylfulvenes” (The Regents of the University of California, priority 1996, dated 2004).
# Experiments:
# skin cancers = conditions: in vivo
# [1] = test system: MV 522 metastatic lung carcinoma xenografts; conditions: MV 522 metastatic lung carcinoma xenografts in nude mice
smiles,measurement,setting,value
"CC1=C(CO)C2=C(C)C3(CC3)[C@@](C)(O)C(=O)C2=C1 [HMAF, hydroxymethylacylfulvene]",activity against colon (HT-29) cancer,colon (HT-29),outstanding activity
same,activity against breast (MX-1) cancer,breast (MX-1),outstanding activity
same,activity against skin cancers,skin cancers,outstanding activity
same,tumor regression,[1],complete tumor regression was observed in all animals
